Experimental data: patent US6060257A, “Tumor rejection antigens presented by HLA-B44 molecules, and uses thereof” (Ludwig Institute for Cancer Research, priority 1996, dated 2000)

Target: T1, HLA-B*4402 (Homo sapiens, UniProt P01889, A223V/A65T/A93T/A95T/D201E/D98Y/E176V/E187L/E204Q/E69K/G107R/H137Y/K202T/L105A/L119I/N104T/N87E/Q56L/Q94N/R106L/R155S/R180D/S101N/S121R/S35A/S48T/T118I/V36M/W191S/Y140D/Y91S)
T1 construct: expressed in transfected cells; host or cells: C1R cells (MHC class I negative, EBV-transformed lymphoblastoid)
Assay: Competitive assay: inhibition of CTL 159/5 lysis of C1R-B*4402 cells sensitized with SEQ ID NO: 18
Format: cell-based
Conditions: C1R-B44 cells (B*4402 and B*4403 transfectants)

Substance: Gin Glu Glu Gly Pro Ser Thr Phe [SEQ ID NO: 20]
- inhibition of lysis of C1R-B44 cells (indicates binding to HLA-B44 molecules): did inhibit lysis
